Among the data in a melting point compilation (Tetko et al.; mined from patent text by program, amines drawn as free bases though some values may be those of a salt) are melting point values, retold here.

Structures are written as SMILES. Some results are limits rather than exact numbers.

One may read the melting point as the temperature, or range, at which the solid turns liquid. `COC(=O)[C@H](NC(=O)OC(C)(C)C)c1ccc(O)cc1` showed a melting point of 140 to 142 °C.

`Cc1ncccc1C(C#N)N1CCN(C(=O)CC(NC(=O)Cc2cccc(OCc3ccc4ccccc4n3)c2)c2ccccc2)CC1` (stereo not given): the melting point is 83 to 86 °C.

As for `CS(=O)(=O)c1ccc(-n2nc(C(F)(F)F)cc2-c2ccc(Br)cc2)cc1F`, the melting point fell in the range of 64 to 65 °C. `CCCCCCCCC1SC(=S)SC1CCCCCCCCO` (stereo not given) showed a melting point of 40 to 47 °C.

As to `Cn1cc(-c2ccccc2)c(=O)c(-c2ccc(-c3ccccc3)cc2)c1`, the melting point is 186 to 190 °C. In the case of `Cc1ccc2oc(C=Cc3ccc(C(=O)O)cc3)cc(=O)c2c1`, the melting point lay in the range of 308 to 312 °C. For the compound `CNc1c(F)cc2c(=O)c(C(=O)O)cn(-c3nc(N)c(F)cc3F)c2c1Cl`, the melting point lay within 251 to 253 °C. Compound `Cc1cccc(Nc2cc(Nc3ccc(O)cc3)ncn2)c1` gave a melting point of 242 to 245 °C. The compound `COc1ccc(N2CCN(c3c(C)c(C)c4c(c3C)CC(C)(C)O4)CC2)cc1F` gave a melting point of 161 to 163 °C.

On to `CC(=NO)c1ccnc(C)c1`, for which the melting point fell in the range of 151 to 152 °C.

On to `COC(=O)C1CCC2ON=C(c3ccc(Cl)cc3)C2CC1` (stereo not given), for which the melting point lay within 150 to 185 °C.

`COc1cc2ncc(C#N)c(Nc3cccnc3)c2cc1OC` registered a melting point of 231 to 233 °C. The result for `CC1CCN(C(=O)[C@H](CCCNc2ncccn2)NS(=O)(=O)c2ccc3ccccc3c2)CC1` reads 98 to 100 °C; that for `Cc1ccc2ccc(C(N)=O)cc2c1`, 210 to 212 °C; that for `O[C@@H]1CN=C(c2cccs2)O[C@H]1c1ccccc1` (racemic), 158 °C.

Compound `COc1ccc(C(=O)c2c(C)n(C)c(=O)n2C)cc1` returned a melting point of 109 to 111 °C.

Take `COc1cc2c(cc1OC)CCC(C(=O)N1CCN(C(=O)c3ccc(OC)c(OC)c3OC)CC1)=C2`: the melting point lay within 166 to 167 °C. `Oc1ccnc2cc(Cl)c(F)cc12` had a melting point greater than 300 °C. For `Cc1ccccc1-c1c(O)c2ccccc2[nH]c1=O`, the melting point is greater than 300 °C. The result for `CC(C)(C)C(=O)Nc1nc(O)c2c(n1)NCC(CCC1CCC(C(=O)O)CC1)C2` (stereo not given) reads 218 to 234 °C. The figure for `CCCCCCCCOc1ccc(-c2ccc(CCl)cc2)cc1` is 101 °C; for `O=c1[nH]nc2ccc(S)nn12` it is greater than 300 °C. As to `CCCC1=C(C(=O)OCC)C(c2cccc([N+](=O)[O-])c2)C(C(=O)OCC)=C(C)N1COCC` (stereo not given), the melting point came to 97 °C. `CC(=O)c1ccc(Nc2cccc(-c3cccnc3)c2)c(N)c1` yielded a melting point of 175 to 176 °C. As to `CCOC(=O)C=Cc1ccc(F)c([N+](=O)[O-])c1`, the melting point was in the range of 115 to 117 °C. `CC(C)Cn1cnc(C#N)c1N` yielded a melting point of 186 to 188 °C. `CCC1CCC(Oc2cc(F)cc(C(=O)Nc3ccc(OCc4ccncc4)c4ccccc34)c2)CC1` (stereo not given) had a melting point of 93 to 95 °C.

In turn, `COc1cc2c(cc1OC)C(c1sc(N)nc1C)=NCC2` registered a melting point of 233 to 237 °C. The compound `CCNc1cc(C(=O)O)cc(S(N)(=O)=O)c1Oc1ccccc1` gave a melting point of 236 to 237 °C. The compound `N#Cc1nn(-c2c(Cl)cc(C(F)(F)F)cc2Cl)c(-n2cccn2)c1S(=O)(=O)C(F)(F)F` returned a melting point of 191 to 193 °C. For `CCOC(=O)C1CN2c3c(cc4ccccc4c3CCC2C)C1=O` (stereo not given), the melting point lay in the range of 178 to 180 °C. In the case of `C=CCN1C(C)(C)CC(Oc2nc(OC3CC(C)(C)N(CC=C)C(C)(C)C3)nc(OC3CC(C)(C)N(CC=C)C(C)(C)C3)n2)CC1(C)C`, the melting point is 218 to 219 °C. Compound `Cc1ccc(Oc2nsnc(Cl)c2=O)cn1` yielded a melting point of 155 to 156 °C. Regarding `CCc1cc(CC)n2nccc2n1`, the melting point lay within 43 to 44 °C. The result for `CCOC(=O)C=CN1C(C)(C)CC(OC(=O)CC(=O)OC2CC(C)(C)N(C=CC(=O)OCC)C(C)(C)C2)CC1(C)C` reads 100 to 102 °C; that for `COc1nc(Cl)c(-c2c(F)cc(F)cc2F)c(N[C@@H](C)C(F)(F)F)n1`, 121 to 129 °C.

Regarding `CCCN(CCC)C(=O)CNc1nc(-c2ccccc2)ncc1CO`, the melting point is 167 to 168 °C. The result for `Cc1ccc(COc2ccc3c(c2)c(C=CC(=O)O)cn3CC(=O)N(C)CCc2ccccc2)cc1` reads 164 to 166 °C; that for `OCCN(Cc1ccccc1)c1nc2ccccc2s1`, 95 to 96 °C.

Turning to `CCCCOc1ccc2cc(Br)ccc2c1`, the melting point was in the range of 48 to 50 °C. `Cc1oc2ccccc2c1C(=O)NCc1ccc2cc(O)ccc2c1` came in with a melting point of 195 to 198 °C. With `O=C(NCc1ccccc1)c1ccnc(N2CCN(CC3CC3)C2=O)c1`, the melting point is 121 to 123 °C. For the compound `C=COC(=O)N=c1sc2cc(OC(F)(F)F)ccc2n1CCSC(C)=O`, the melting point was 173 °C. Compound `COc1cc2c(c3c1OC(C)(C)C3)C(c1cccc(N(C(N)=O)c3cccnc3)c1)=NC(C)(C)C2` returned a melting point of 168 to 169 °C.

`CCCn1c(CCOC)nc2c(N)nc3cc(OC4CCN(C(N)=O)CC4)ccc3c21` came in with a melting point of 207 to 208 °C. `CN(C)CC/C=C/c1ccc2c(Nc3ccc(Sc4nccn4C)c(Cl)c3)c(C#N)cnc2c1` came in with a melting point of 191 to 198 °C. The compound `O=C(/C=C/c1ccsc1)N1CCOCC1` gave a melting point of 141 to 142 °C. On to `CC(=O)C(=NO)C(=O)OC(C)(C)C`, for which the melting point fell in the range of 55 to 63 °C.

On to `Cc1c(C(=O)O)cccc1-n1cccc1`, for which the melting point fell in the range of 146 to 148 °C. `COC(=O)Cn1c(=O)c(=O)[nH]c2cc(C(F)(F)F)c(-n3cccc3)cc21` came in with a melting point of 141 to 142 °C.

The compound `COc1ccc2c(c1OC)CCC(C#N)C2C#N` (stereo not given) registered a melting point of 107 to 108 °C. `Brc1ccc2c(c1)C=NC=CN2` had a melting point of 135 to 138 °C.

Take `O=C(O)c1ccccc1C(=O)N1CCN(c2cc3c(cc2F)c(=O)c(C(=O)O)c2sccn23)CC1`: the melting point was in the range of 277 to 278 °C. The result for `CCOC(=O)[C@@H](CCC(=O)N1c2ccccc2C[C@H]1C(=O)OCC)NC(=O)[C@@H](N)CCCCNSc1ncccc1[N+](=O)[O-]` reads 95 to 102 °C; that for `COc1cc2c(cc1O)c(-c1cc3cccnc3n1S(=O)(=O)c1ccc(C)cc1)cn2C`, 211 to 214 °C; that for `Cc1ccc2nc(-c3ccccc3C#N)n(C)c(=O)c2c1`, 157 to 158 °C. `COc1ccc(-c2ccc(C(=O)Nc3ccc4cc(CN5CCCC5)cnc4c3)c(F)c2)cc1` displayed a melting point of 174 °C.

In the case of `O=[N+]([O-])c1ccc2nc(CS(=O)c3ccccn3)[nH]c2c1` (stereo not given), the melting point fell in the range of 207 to 209 °C. On to `CNc1ccsc1C(=O)CS(C)=O` (stereo not given), for which the melting point was in the range of 125 to 127 °C. On to `Cc1ncoc1C(C)(O)c1ccccc1` (stereo not given), for which the melting point fell in the range of 102 to 104 °C. Compound `CCCS(=O)(=O)c1ccccc1S(=O)(=O)NC(=O)Nc1nc(Cl)cc(OCC)n1` yielded a melting point of 220 to 222 °C. For `CCOC(=O)c1noc([C@@H](Cc2ccc3ccccc3c2)N(C)C(=O)OC(C)(C)C)n1`, the melting point is 99 to 102 °C. `O=C(Nc1cccnc1)N1CCc2cc(C(F)(F)F)ccc21` displayed a melting point of 188 to 189 °C. `Cc1nc(N)c(N)cc1Cl` came in with a melting point of 128 to 130 °C. The compound `CC(=O)c1ccc2occ(C#N)c(=O)c2c1` gave a melting point of 170 to 172 °C.
